In EP0795549A1, “Bis-aryloxy(amino)-triazinyl-oxy(amino)aryl derivatives, their preparation and their use as antiviral agents” (American Cyanamid Company, priority 1996, dated 1997):

Legend:
RSV (A2) = experiment: viral yield reduction (growth inhibition) assay, RSV; assay type: cell-based, Respiratory Syncitial Virus
Description: The compounds were tested for biological activity using viral yield reduction assays. Host cells (indicated as HF for human foreskin fibroblasts and as vero, the commonly used African green monkey cell line, in Tables 1 and 1a) were plated at 4 x 10^4 cells/well in cell growth medium with 2% fetal bovine serum or 2% calf serum in 96-well plates (0.1 ml/well) and incubated overnight. The compounds were added to individual wells to give final concentrations ranging from 50 to 0.1 µg/ml in two-fold concentration steps. After 1 hour, virus was added, and the incubation was continued for 4 days with RSV or CMV and for 2 days with HSV. At the end of the experiment, the amount of virus growth was quantitated and the yield reduction at various concentrations of compound was calculated. This allows estimation of the concentration of compound giving 50% reduction in virus growth (IC50).

RSV [1] = experiment: viral plaque reduction assay, RSV; assay type: cell-based, Respiratory Syncitial Virus
CMV (Ad169) = experiment: viral plaque reduction assay, CMV; assay type: cell-based, Cytomegalovirus
HSV1 (Patton) = experiment: viral plaque reduction assay, HSV1; assay type: cell-based, Herpes Simplex Virus; conditions: HSV1 (Patton), vero host cells
HSV2 = experiment: viral plaque reduction assay, HSV2; assay type: cell-based, herpes simplex virus; conditions: Pre
HPIV3 = experiment: viral plaque reduction assay, HPIV3; assay type: cell-based, human parainfluenza virus type 3, strain Washington; conditions: HPIV3 WASH., VERO, Pre
FLU = experiment: viral plaque reduction assay, influenza; assay type: cell-based; conditions: Pre
RSV [2] = experiment: time of addition: effect on viral protein synthesis in infected Vero cells; assay type: cell-based
Description: The time in the virus life-cycle when Example 1 exerts its effect was determined to increase understanding of the mechanism of action. This was accomplished by adding and removing the compound at various times relative to infection and assessing the effect on viral protein synthesis. Vero cells were infected on ice for 1 hour, unadsorbed virus was removed, and then the infected cells were incubated at 37°C for 18 hours (virus adsorption will occur on ice, but fusion will not proceed until the temperature is raised to 18°C or above). After the 18 hour incubation at 37°C (when the bulk of ongoing protein synthesis was directed by viral RNAs), ^35S-methionine was added for 2 hours, the cells were lysed, and the labeled proteins were analyzed on SDS-PAGE gels. The viral N, P, and M proteins were then evident. […] However, when the compound of Example 1 was added even after only 5 minutes incubation at 37°C, viral protein production was unimpeded. Therefore, the process inhibited was the fusion process or some closely succeeding step which is required for later viral gene expression.

RSV A2 = assay type: in vivo, cotton rats; conditions: cotton rats, summary of Table 3

4,4'-Bis[4,6-di[3-aminophenyl-N,N-bis(2-carbamoyl-ethyl)sulfonylimino]-1,3,5-triazin-2-ylamino]-stilbene-2,2'-disulfonic acid, disodium salt [Example 1]
IC50 µG/mL IN GROWTH […]/ HF (RSV (A2); HF host cells): 0.3 µg/mL
IC50 µG/mL IN GROWTH […]/ VERO (RSV (A2); vero host cells): 0.5 µg/mL
IC50 (µG/ml) viral plaque formation (RSV [1]; RSV 2B, VERO, Pre): 0.1 µg/mL
IC50 (µG/ml) viral plaque formation (RSV [1]; RSV 3A, VERO, Pre): 0.5 µg/mL
IC50 (µG/ml) viral plaque formation (RSV [1]; RSV 9320, VERO, Pre): 0.2 µg/mL
IC50µG/mL IN PLAQUE ASSAY RSV/ VERO (RSV [1]; RSV (A2), vero host cells): 0.3 µg/mL
IC50 (µG/ml) viral plaque formation (RSV [1]; RSV A2, HF, Post 2 hours): <3 µg/mL
IC50 (µG/ml) viral plaque formation (RSV [1]; RSV A2, HF, Pre): 0.4 µg/mL
IC50 (µG/ml) viral plaque formation (RSV [1]; RSV A2, MDBK, Pre): 0.4 µg/mL
IC50 (µG/ml) viral plaque formation (RSV [1]; RSV A2, SKNSH, Pre): 0.4 µg/mL
IC50 (µG/ml) viral plaque formation (RSV [1]; RSV A2, VERO, Post 2 hours): 0.3 µg/mL
IC50 (µG/ml) viral plaque formation (RSV [1]; RSV A2, VERO, Post 24 hours): 0.4 µg/mL
IC50 (µG/ml) viral plaque formation (RSV [1]; RSV A2, VERO, Pre (pretreatment)): 0.3 µg/mL
IC50 (µG/ml) viral plaque formation (RSV [1]; RSV LONG, VERO, Pre): 0.2 µg/mL
active against all RSV strains tested (plaque assays) (RSV [1]; all RSV strains tested): 0.1 to 0.7 µg/mL
IC50µG/mL IN PLAQUE ASSAY CMV/ HF (CMV (Ad169); CMV (Ad169), HF host cells): 7 µg/mL
IC50 (µG/ml) viral plaque formation (CMV (Ad169); HCMV Ad169, HF, Pre): 15 µg/mL
IC50µG/mL IN PLAQUE ASSAY HSV/ VER O (HSV1 (Patton)): 8 µg/mL
IC50 (µG/ml) viral plaque formation (HSV2; HSV2 12, VERO): >10 µg/mL
IC50 (µG/ml) viral plaque formation (HSV2; HSV2 333, VERO): 3 µg/mL
IC50 (µG/ml) viral plaque formation (HSV2; HSV2 MS, VERO): 5 µg/mL
IC50 (µG/ml) viral plaque formation (HPIV3): 20 µg/mL
IC50 (µG/ml) viral plaque formation (FLU; FLU A1/FM/1/47, MDCK): >50 µg/mL
IC50 (µG/ml) viral plaque formation (FLU; FLU A2/HK/8/68, MDCK): >50 µg/mL
IC50 (µG/ml) viral plaque formation (FLU; FLU A2/JPN/305/57, MDCK): >50 µg/mL
IC50 (µG/ml) viral plaque formation (FLU; FLU A/Beij/32/92, MDCK): >20 µg/mL
IC50 (µG/ml) viral plaque formation (FLU; FLU A/Texas/36/91, MDCK): 5 µg/mL
IC50 (µG/ml) viral plaque formation (FLU; FLU B/Pana/45/90, MDCK): >20 µg/mL
viral protein synthesis (RSV [2]; 10 µg/ml added immediately after virus adsorption and before raising the incubation temperature to 37°C): fully prevented
viral protein production (RSV [2]; added after only 5 minutes incubation at 37°C): unimpeded
inhibition of RSV in vivo (summary in words) (RSV A2): inhibit RSV in vivo
